Data taken from the Kinase Knowledgebase extract (Sharma et al. 2016).
Where “and” joins values, the source holds several entries; their conditions need not be identical. Equal entries are not always repeated.

Assays:
EGFR [1] = biological target: EGFR (UniProt P00533)
EGFR [2] = biological target: EGFR (UniProt P00533); conditions: various cell lines

Chain of EGFR (P00533 whole entry, looked up): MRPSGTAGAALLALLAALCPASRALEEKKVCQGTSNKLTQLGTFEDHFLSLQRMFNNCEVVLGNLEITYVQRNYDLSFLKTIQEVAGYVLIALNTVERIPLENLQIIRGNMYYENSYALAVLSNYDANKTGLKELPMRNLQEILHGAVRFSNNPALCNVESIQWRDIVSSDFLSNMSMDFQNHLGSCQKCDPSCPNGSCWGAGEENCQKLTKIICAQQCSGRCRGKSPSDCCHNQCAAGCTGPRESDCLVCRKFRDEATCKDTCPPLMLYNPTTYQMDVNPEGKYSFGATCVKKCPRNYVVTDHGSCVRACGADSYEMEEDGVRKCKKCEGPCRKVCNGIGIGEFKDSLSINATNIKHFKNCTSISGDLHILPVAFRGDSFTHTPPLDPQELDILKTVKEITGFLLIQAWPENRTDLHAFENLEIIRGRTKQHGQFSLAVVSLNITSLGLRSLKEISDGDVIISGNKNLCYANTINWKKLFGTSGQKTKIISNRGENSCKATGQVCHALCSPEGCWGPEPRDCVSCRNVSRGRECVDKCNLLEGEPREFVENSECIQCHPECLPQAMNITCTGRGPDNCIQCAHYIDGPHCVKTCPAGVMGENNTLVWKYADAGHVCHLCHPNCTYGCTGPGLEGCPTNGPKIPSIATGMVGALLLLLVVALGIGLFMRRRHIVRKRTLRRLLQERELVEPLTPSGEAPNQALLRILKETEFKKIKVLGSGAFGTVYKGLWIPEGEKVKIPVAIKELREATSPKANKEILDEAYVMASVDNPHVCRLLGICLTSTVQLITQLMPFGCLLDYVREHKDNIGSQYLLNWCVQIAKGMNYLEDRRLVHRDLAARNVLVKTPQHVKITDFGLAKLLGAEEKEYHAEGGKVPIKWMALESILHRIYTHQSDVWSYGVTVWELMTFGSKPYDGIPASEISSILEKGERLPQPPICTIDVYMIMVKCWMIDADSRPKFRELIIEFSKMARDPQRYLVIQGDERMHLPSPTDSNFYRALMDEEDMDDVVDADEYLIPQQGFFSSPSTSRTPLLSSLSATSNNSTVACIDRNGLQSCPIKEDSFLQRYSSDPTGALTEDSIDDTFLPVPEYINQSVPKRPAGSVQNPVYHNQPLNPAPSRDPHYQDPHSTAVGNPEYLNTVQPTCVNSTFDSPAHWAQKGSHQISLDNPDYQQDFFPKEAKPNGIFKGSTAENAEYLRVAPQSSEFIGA

Compound	IC50 (EGFR [1])	IC50 (EGFR [2]) [µM]
Brc1cccc(Nc2ncnc3cc(NCCCN4CCOCC4)ncc23)c1	0.0074 µM	0.038
Brc1cccc(Nc2ncnc3cc4[nH]cc(CN5CCOCC5)c4cc23)c1		0.0096
CNC(=O)c1c([Se][Se]c2c(C(=O)NC)c3ccccc3n2C)n(C)c2ccccc12	6.1 µM	
CNc1cc2ncnc(Nc3cccc(Br)c3)c2cn1	9.1e-05 µM	
CN(C)CCCCNc1cc2ncnc(Nc3cccc(Br)c3)c2cn1	0.0019 µM	0.0081
Brc1cccc(Nc2ncnc3cnc(NCCN4CCOCC4)cc23)c1		0.0079
Brc1cccc(Nc2ncnc3cnc(NCCc4c[nH]cn4)nc23)c1		0.0051
C=CC(=O)Nc1ccc2c(c1)sc1c(Nc3cccc(Br)c3)ncnc12	0.021 µM	
C=CC(=O)Nc1cccc2c1sc1c(Nc3cccc(Br)c3)ncnc12	0.0014 µM	0.024
COc1cc2ncnc(Oc3cccc(Br)c3)c2cc1OC		0.07
Cc1cccc(N(C)c2ncnc3[nH]ncc23)c1	> 50 µM	
Nc1ccc(-c2n[nH]c3ncnc(Nc4cccc(Cl)c4)c23)cc1	0.002 µM	
Clc1cccc(Nc2ncnc3[nH]c4ccccc4c23)c1	0.006 µM	
COc1cc2ncnc(Nc3cncc4ccccc34)c2cc1OC	0.006 µM	
Brc1cccc(Nc2ncnc3ccccc23)c1	0.02 µM and 0.023 µM	
Cn1c(SSc2c(C(=O)Nc3ccccc3)c3ccccc3n2C)c(C(=O)Nc2ccccc2)c2ccccc21	20 µM	
CNc1cc2c(Nc3cccc(Br)c3)ncnc2cn1		0.013
CC(=O)Oc1cccc2c1c(C(=O)Nc1ccccc1)c(SSc1c(C(=O)Nc3ccccc3)c3c(OC(C)=O)cccc3n1C)n2C	10 µM	
C/C(O)=C(/C#N)C(=O)Nc1ccc(C(F)(F)F)cc1		35
O=C1NC(=O)c2cc(NC3CCCCC3)c(NC3CCCCC3)cc21	> 1000 µM	

Further lines, results first:

IC50 (EGFR [1])	IC50 (EGFR [2]) [µM]	Compound
0.22 µM		Nc1nc(N)c2c(Nc3cccc(Cl)c3)n[nH]c2n1
0.00044 µM		Brc1cccc(Nc2ncnc3cc4[nH]ncc4cc23)c1
0.003 µM		COc1cc2c(NC3CC3c3ccccc3)ncnc2cc1OCCCN(C)C (centres undefined)
18 µM		COC(=O)Cc1c(SSc2[nH]c3ccccc3c2CC(=O)OC)[nH]c2ccccc12
	0.028	CCN(CC)CC(O)CNc1cc2c(Nc3cccc(Br)c3)ncnc2cn1 (centres undefined)
0.01 µM		COc1cc2ncnc(NCc3cccc(Br)c3)c2cc1OC
0.008 µM		COc1cccc(CNc2n[nH]c3ncnc(Nc4cccc(Cl)c4)c23)c1
	0.03	CNc1ncc2ncnc(Nc3cccc(Br)c3)c2n1
0.02 µM		COc1cc2ncnc(Nc3ccc(F)c(Br)c3)c2cc1OCCCN1CCOCC1
12 µM		COc1cc2ncnc(N(C)c3cccc(C)c3)c2cc1OC
0.0016 µM		COc1cc2ncnc(N[C@H](C)c3cccc(Br)c3)c2cc1OC
0.00044 µM	0.02	Brc1cccc(Nc2ncnc3cc4[nH]ccc4cc23)c1
0.033 µM		Clc1cccc(Nc2ncnc3[nH]nc(Nc4cccc(Cl)c4)c23)c1
0.04 µM and 0.027 µM		Clc1cccc(Nc2ncnc3ccccc23)c1
0.367 µM		O=CN/C=C/c1cc(O)ccc1O
	> 0.03	COc1cc2cc(-c3ccccc3)c(Cl)nc2cc1OC
	0.0097	CN(C)Cc1c[nH]c2cc3ncnc(Nc4cccc(Br)c4)c3cc12
1.5 µM		Cc1cccc2c(CCC(=O)O)c(SSc3[nH]c4c(C)cccc4c3CCC(=O)O)[nH]c12
0.01 µM		COc1cc2ncnc(NC3CC3c3ccccc3)c2cc1OC (centres undefined)
0.023 µM		C=CC(=O)Nc1ccc2sc3c(Nc4cccc(Br)c4)ncnc3c2c1
	0.016	Brc1cccc(Nc2ncnc3cc4c(ccn4CCN4CCOCC4)cc23)c1
	2.5	COc1cc2nccc(Oc3cccc(Br)c3)c2cc1OC
3.76 µM		COc1cc2ncnc(N[C@@H](C)c3cccc(Br)c3)c2cc1OC
	0.048	CN(C)CCNc1cc2c(Nc3cccc(Br)c3)ncnc2cn1
0.00034 µM		Brc1cccc(Nc2ncnc3cc4cn[nH]c4cc23)c1
